Values of other authors as cited in patent US6395294B1, “Method of visualization of the vitreous during vitrectomy” (priority 2000, dated 2002).
Like-named read-outs stand apart in the source and are kept apart here.

Assays:
[1] = intravitreal injections
[2] = intravenous
blood retinal barrier = details: intravitreal, experimental
[3] = human eyes
[4] = primate eyes
[5] = intravitreal, experimental
[6] = rabbit eyes

Question: Which retinal toxicity (dose of 2 mg) does the source give for `C[C@@H]1C[C@H]2[C@@H]3CCC4=CC(=O)C=C[C@]4(C)[C@@]3(F)[C@@H](O)C[C@]2(C)[C@@]1(O)C(=O)COP(=O)(O)O` [dexamethasone sodium phosphate] here?
Answer: did not show retinal toxicity

Question: Which “aqueous formation rate and outflow facility compared with saline injection” value [1] does the source give for `C[C@]12CCC(=O)C=C1CC[C@@H]1[C@@H]2[C@@H](O)C[C@@]2(C)[C@H]1CC[C@]2(O)C(=O)CO` [hydrocortisone] here?
Answer: no difference

Question: What about the intraocular pressure ([1]; both drug and saline groups, because of a decrease in outflow facility) of the same compound?
Answer: increased intraocular pressure

Question: Which “effect on diabetic eyes with rubeosis iridis” value [2] does the source give for `C[C@H]1C[C@@H]2[C@H]([C@@H](O)C[C@@]3(C)[C@H]2CC[C@]3(O)C(=O)COC(=O)CCC(=O)[O-])[C@@]2(C)C=CC(=O)C=C12.[Na+]` [solumedrol, methylprednisolone sodium succinate] here?
Answer: quiets diabetic eyes with rubeosis iridis

Question: Which “breakdown of the blood retinal barrier” value (blood retinal barrier) does the source give for `CC1(C)O[C@@H]2C[C@H]3[C@@H]4CCC5=CC(=O)C=C[C@]5(C)[C@@]4(F)[C@@H](O)C[C@]3(C)[C@]2(C(=O)CO)O1` [triamcinolone, triamcinolone acetonide] here?
Answer: reduce the breakdown of the blood retinal barrier

Question: And the “tolerance in the eye” value [3]?
Answer: well tolerated

Question: And the “tolerance in the eye” value [4]?
Answer: well tolerated

Question: And the angiogenesis [5]?
Answer: inhibit angiogenesis

Question: What about the “incidence of proliferative vitreoretinopathy and subsequent retinal detachment” value [5] of the same compound?
Answer: reduce the incidence of proliferative vitreoretinopathy and subsequent retinal detachment

Question: What about the “preretinal and optic disc neovascularization” value [5] of the same compound?
Answer: inhibit preretinal and optic disc neovascularization

Question: What about the retinal toxicity (vitrectomized and nonvitrectomized eyes, dosage of 2-4 mg) of the same compound?
Answer: no retinal toxicity

Question: What about the “tolerance in the eye” value [6] of the same compound?
Answer: well tolerated
